Test results from patent publication US4594241A, “Anti-leishmanial pharmaceutical formulations” (Burroughs Wellcome Co., priority 1982, dated 1986).

Experiments:
Leishmania donovani [1] = assay: Animal test: Balb/c mice infected with Leishmania donovani, intravenous treatment once daily for 5 days, liver parasite count; format: in vivo, Leishmania donovani in Balb/c mice; conditions: for ED50 (P95 limits): i.v. daily for 5 days, 10080 min
Source text: (§1) Inbred male mice, strain Balb/c (Bantin & Kingman), were infected with Leishmania donovani by intravenous inoculation of 10^7 amastigotes from the spleen of an infected hamster. One week after inoculation, the mice were divided into groups of 9-10 animals and dosed intravenously into the tail vein with sodium stibogluconate, either as free drug or entrapped in liposomes similar to those described in Example 1. The dose was given once daily for 5 days. Empty liposomes were inoculated into one group as controls. Seven days after the first dose of drug, the mice were killed, the livers excised and weighed, and impression smears prepared from a cut surface of the liver. The impression smears were stained with Giemsa, and number of amastigotes counted microscopically per 500 liver cell nuclei, and the total number of parasites calculated by the method of Stauber et al. J. Protozoology, 5, 269, (1958).
(§2) The doses of sodium stibogluconate were calculated in terms of mg antimony/kg for both free and entrapped drug. The liposome dilutions were freshly prepared for each day of drug treatment.
The results of treatment are expressed as the mean of the total numbers of amastigotes in the liver of each mouse.

Leishmania donovani [2] = assay: Animal test: mice infected with Leishmania donovani, single intravenous injection (Experiment No. 82), liver parasite count; format: in vivo, Leishmania donovani in Balb/c mice
Source text: as §1, with “The dose was given once daily for 5 days.” left out
as §2
The results of treatment are expressed as the mean of the total numbers of amastigotes in the liver of each mouse. The following results were obtained:
Further animal tests on mice, as described in Example 2, were carried out using a liposomal formulation corresponding to that described as Preparation No. 8 in Example 2. […]

[3] = expt. 44, 15 mg Sb/kg × 5, i.v.
[4] = expt. 56, 0.5 mg Sb/kg × 5, i.v.
[5] = expt. 56, 1.0 mg Sb/kg × 5, i.v.
[6] = expt. 56, 2.0 mg Sb/kg × 5, i.v.
[7] = expt. 56, 4.0 mg Sb/kg × 5, i.v.

## sodium stibogluconate
Leishmania donovani [1]; Expt. 44
  Potency relates to free drug (P95 limits): 1
  ED50 (P95 limits): 2.4 (3.2-1.8) mg Sb/kg × 5
Leishmania donovani [1]; Expt. 56
  Potency relates to free drug (P95 limits): 1
  ED50 (P95 limits): 1.14 (1.35-0.95) mg Sb/kg × 5
Leishmania donovani [1]; expt. 44, 5 mg Sb/kg × 5, i.v.
  % inhibition: 72%
  Mean no. of parasites/mouse liver ± SE: 1.54 ± 0.21 × 10^8
Leishmania donovani [1]; [3]
  % inhibition: 93%
  Mean no. of parasites/mouse liver ± SE: 0.38 ± 0.08 × 10^8
Leishmania donovani [1]; [4]
  % inhibition: 23%
  Mean no. of parasites/mouse liver ± SE: 3.80 ± 0.37 × 10^8
Leishmania donovani [1]; [5]
  % inhibition: 26%
  Mean no. of parasites/mouse liver ± SE: 3.65 ± 0.29 × 10^8
Leishmania donovani [1]; [6]
  % inhibition: 69%
  Mean no. of parasites/mouse liver ± SE: 1.55 ± 0.36 × 10^8
Leishmania donovani [1]; [7]
  % inhibition: 93%
  Mean no. of parasites/mouse liver ± SE: 0.35 ± 0.11 × 10^8
Leishmania donovani [2]
  ED50 (dosage rate necessary to reduce the parasite count to 50% of the untreated group): 61.2 mg antimony per kilogram body weight
